According to patent US10485235B2, “Aryloxypyrimidinyl ethers as herbicides” (FMC Corporation, priority 2015, dated 2019):

Experiments:
Type in all cases: in vivo
kochia (Kochia scoparia) [1] = assay: Test A postemergence, kochia
Excerpt: (§1) Seeds of plant species selected from barnyardgrass (Echinochloa crus-galli), kochia (Kochia scoparia), ragweed (common ragweed, Ambrosia elatior), ryegrass, Italian (Italian ryegrass, Lolium multiflorum), foxtail, giant (giant foxtail, Setaria faberii), and pigweed (Amaranthus retroflexus), were planted into a blend of loam soil and sand and treated preemergence with a directed soil spray using test chemicals formulated in a non-phytotoxic solvent mixture which included a surfactant.
(§2) At the same time, plants selected from these weed species and also wheat (Triticum aestivum), corn (Zea mays), blackgrass (Alopecurus myosuroides), and galium (catchweed bedstraw, Galium aparine), were planted in pots containing the same blend of loam soil and sand and treated with postemergence applications of test chemicals formulated in the same manner. Plants ranged in height from 2 to 10 cm and were in the one- to two-leaf stage for the postemergence treatment. Treated plants and untreated controls were maintained in a greenhouse for approximately 10 days, after which time all treated plants were compared to untreated controls and visually evaluated for injury. Plant response ratings, summarized in Table A, are based on a 0 to 100 scale where 0 is no effect and 100 is complete control. A dash (—) response means no test result.

[2] = test system: sedge, umbrella (small-flower umbrella sedge, Cyperus difformis); assay: Test B flooded paddy test, umbrella sedge; conditions: 250 g ai/ha, Flood; visual rating after 13 to 15 days; scale 0 to 100, 0 is no effect, 100 is complete control
Protocol: (§3) Plant species in the flooded paddy test selected from rice (Oryza sativa), sedge, umbrella (small-flower umbrella sedge, Cyperus difformis), ducksalad (Heteranthera limosa), and barnyardgrass (Echinochloa crus-galli) were grown to the 2-leaf stage for testing. At time of treatment, test pots were flooded to 3 cm above the soil surface, treated by application of test compounds directly to the paddy water, and then maintained at that water depth for the duration of the test. Treated plants and controls were maintained in a greenhouse for 13 to 15 days, after which time all species were compared to controls and visually evaluated. Plant response ratings, summarized in Table B, are based on a scale of 0 to 100 where 0 is no effect and 100 is complete control. A dash (—) response means no test result.

[3] = test system: foxtail, giant (giant foxtail, Setaria faberii); assay: Test A preemergence, giant foxtail; conditions: Preemergence, 0 to 100 scale (0 no effect, 100 complete control)
Excerpt: as §1, §2

[4] = test system: foxtail, giant (giant foxtail, Setaria faberii); assay: Test A postemergence, giant foxtail
Excerpt: as §1, §2

[5] = test system: ragweed (common ragweed, Ambrosia elatior); assay: Test A preemergence, ragweed; conditions: Preemergence, 0 to 100 scale (0 no effect, 100 complete control)
Excerpt: as §1, §2

[6] = test system: barnyardgrass (Echinochloa crus-galli); assay: Test A postemergence, barnyardgrass
Excerpt: as §1, §2

[7] = test system: pigweed (Amaranthus retroflexus); assay: Test A postemergence, pigweed
Excerpt: as §1, §2

rice (Oryza sativa) = assay: Test B flooded paddy test, rice; conditions: 250 g ai/ha, Flood; visual rating after 13 to 15 days; scale 0 to 100, 0 is no effect, 100 is complete control
Protocol: as §3

[8] = test system: wheat (Triticum aestivum); assay: Test A postemergence, wheat
Excerpt: as §1, §2

corn (Zea mays) = assay: Test A postemergence, corn
Excerpt: as §1, §2

[9] = test system: blackgrass (Alopecurus myosuroides); assay: Test A postemergence, blackgrass
Excerpt: as §1, §2

[10] = test system: ragweed (common ragweed, Ambrosia elatior); assay: Test A postemergence, ragweed
Excerpt: as §1, §2

[11] = test system: pigweed (Amaranthus retroflexus); assay: Test A preemergence, pigweed; conditions: Preemergence, 0 to 100 scale (0 no effect, 100 complete control)
Excerpt: as §1, §2

[12] = test system: ducksalad (Heteranthera limosa); assay: Test B flooded paddy test, ducksalad; conditions: 250 g ai/ha, Flood; visual rating after 13 to 15 days; scale 0 to 100, 0 is no effect, 100 is complete control
Protocol: as §3

[13] = test system: barnyardgrass (Echinochloa crus-galli); assay: Test A preemergence, barnyardgrass; conditions: Preemergence, 0 to 100 scale (0 no effect, 100 complete control)
Excerpt: as §1, §2

[14] = test system: ryegrass, Italian (Italian ryegrass, Lolium multiflorum); assay: Test A postemergence, Italian ryegrass
Excerpt: as §1, §2

[15] = test system: barnyardgrass (Echinochloa crus-galli); assay: Test B flooded paddy test, barnyardgrass; conditions: 250 g ai/ha, Flood; visual rating after 13 to 15 days; scale 0 to 100, 0 is no effect, 100 is complete control
Protocol: as §3

[16] = test system: ryegrass, Italian (Italian ryegrass, Lolium multiflorum); assay: Test A preemergence, Italian ryegrass; conditions: Preemergence, 0 to 100 scale (0 no effect, 100 complete control)
Excerpt: as §1, §2

[17] = test system: galium (catchweed bedstraw, Galium aparine); assay: Test A postemergence, galium
Excerpt: as §1, §2

kochia (Kochia scoparia) [18] = assay: Test A preemergence, kochia; conditions: Preemergence, 0 to 100 scale (0 no effect, 100 complete control)
Excerpt: as §1, §2

[19] = 125 g ai/ha, postemergence, 0 to 100 scale, 0 is no effect, 100 is complete control, approximately 10 days
[20] = 500 g ai/ha, postemergence, 0 to 100 scale, 0 is no effect, 100 is complete control, approximately 10 days
[21] = Postemergence, 31 g ai/ha, 0 to 100 scale (0 no effect, 100 complete control)
[22] = 31 g ai/ha, postemergence, 0 to 100 scale, 0 is no effect, 100 is complete control, approximately 10 days

SMILES: FC(F)COc1c(Br)cccc1Oc1ncc(Cl)cn1 [Compound 17]
- Plant response rating, Kochia (kochia (Kochia scoparia) [1]; [19]): 100
- Plant response rating, Kochia (kochia (Kochia scoparia) [1]; [20]): 100
- Plant response rating, Sedge, Umbrella [2]: 80
- Plant response rating, Foxtail, Giant ([3]; 125 g ai/ha): 100
- Plant response rating, Foxtail, Giant ([3]; 500 g ai/ha): 100
- Plant response rating, Foxtail, Giant [4, 19]: 40
- Plant response rating, Foxtail, Giant [4, 20]: 100
- Plant response rating, Ragweed ([5]; 125 g ai/ha): 0
- Plant response rating, Ragweed ([5]; 500 g ai/ha): 30
- Plant response rating, Barnyardgrass [6, 19]: 20
- Plant response rating, Barnyardgrass [6, 20]: 90
- Plant response rating, Pigweed [7, 19]: 100
- Plant response rating, Pigweed [7, 20]: 100
- Plant response rating, Rice (rice (Oryza sativa)): 0
- Plant response rating, Wheat [8, 19]: 0
- Plant response rating, Wheat [8, 20]: 20
- Plant response rating, Corn (corn (Zea mays); [19]): 20
- Plant response rating, Corn (corn (Zea mays); [20]): 50
- Plant response rating, Blackgrass [9, 19]: 10
- Plant response rating, Blackgrass [9, 20]: 90
- Plant response rating, Ragweed [10, 19]: 0
- Plant response rating, Ragweed [10, 20]: 40
- Plant response rating, Pigweed ([11]; 125 g ai/ha): 100
- Plant response rating, Pigweed ([11]; 500 g ai/ha): 100
- Plant response rating, Ducksalad [12]: 85
- Plant response rating, Barnyardgrass ([13]; 125 g ai/ha): 80
- Plant response rating, Barnyardgrass ([13]; 500 g ai/ha): 100
- Plant response rating, Ryegrass, Italian [14, 19]: 0
- Plant response rating, Ryegrass, Italian [14, 20]: 70
- Plant response rating, Barnyardgrass [15]: 0
- Plant response rating, Ryegrass, Italian ([16]; 125 g ai/ha): 10
- Plant response rating, Ryegrass, Italian ([16]; 500 g ai/ha): 70
- Plant response rating, Galium [17, 19]: 30
- Plant response rating, Galium [17, 20]: 80
- Plant response rating, Kochia (kochia (Kochia scoparia) [18]; 125 g ai/ha): 90
- Plant response rating, Kochia (kochia (Kochia scoparia) [18]; 500 g ai/ha): 100

SMILES: N#Cc1cccc(Oc2ncc(Cl)cn2)c1OCc1ccc(Cl)cc1 [Compound 3]
- Plant response rating, Kochia (kochia (Kochia scoparia) [1]; [19]): 70
- Plant response rating, Kochia (kochia (Kochia scoparia) [1]; [20]): 90
- Plant response rating, Sedge, Umbrella [2]: 80
- Plant response rating, Foxtail, Giant ([3]; 125 g ai/ha): 90
- Plant response rating, Foxtail, Giant ([3]; 500 g ai/ha): 100
- Plant response rating, Foxtail, Giant [4, 19]: 60
- Plant response rating, Foxtail, Giant [4, 20]: 70
- Plant response rating, Ragweed ([5]; 125 g ai/ha): 0
- Plant response rating, Ragweed ([5]; 500 g ai/ha): 10
- Plant response rating, Barnyardgrass [6, 19]: 50
- Plant response rating, Barnyardgrass [6, 20]: 50
- Plant response rating, Pigweed [7, 19]: 100
- Plant response rating, Pigweed [7, 20]: 100
- Plant response rating, Rice (rice (Oryza sativa)): 0
- Plant response rating, Wheat [8, 19]: 0
- Plant response rating, Wheat [8, 20]: 10
- Plant response rating, Corn (corn (Zea mays); [19]): 10
- Plant response rating, Corn (corn (Zea mays); [20]): 20
- Plant response rating, Blackgrass [9, 19]: 20
- Plant response rating, Blackgrass [9, 20]: 50
- Plant response rating, Ragweed [10, 19]: 60
- Plant response rating, Ragweed [10, 20]: 60
- Plant response rating, Pigweed ([11]; 125 g ai/ha): 90
- Plant response rating, Pigweed ([11]; 500 g ai/ha): 90
- Plant response rating, Ducksalad [12]: 0
- Plant response rating, Barnyardgrass ([13]; 125 g ai/ha): 50
- Plant response rating, Barnyardgrass ([13]; 500 g ai/ha): 90
- Plant response rating, Ryegrass, Italian [14, 19]: 20
- Plant response rating, Ryegrass, Italian [14, 20]: 30
- Plant response rating, Barnyardgrass [15]: 0
- Plant response rating, Ryegrass, Italian ([16]; 125 g ai/ha): 20
- Plant response rating, Ryegrass, Italian ([16]; 500 g ai/ha): 30
- Plant response rating, Galium [17, 19]: 60
- Plant response rating, Galium [17, 20]: 90
- Plant response rating, Kochia (kochia (Kochia scoparia) [18]; 125 g ai/ha): 80
- Plant response rating, Kochia (kochia (Kochia scoparia) [18]; 500 g ai/ha): 90

SMILES: N#Cc1cccc(Oc2ncc(Cl)cn2)c1OCC(=O)C(F)(F)C(F)(F)F [Compound 74]
- Plant response rating, Kochia (kochia (Kochia scoparia) [1]; [19]): 20
- Plant response rating, Kochia (kochia (Kochia scoparia) [1]; [21]): 0
- Plant response rating, Sedge, Umbrella [2]: 0
- Plant response rating, Foxtail, Giant ([3]; 31 g ai/ha): 0
- Plant response rating, Foxtail, Giant ([3]; 125 g ai/ha): 70
- Plant response rating, Foxtail, Giant [4, 19]: 40
- Plant response rating, Foxtail, Giant [4, 21]: 0
- Plant response rating, Ragweed ([5]; 31 g ai/ha): 0
- Plant response rating, Ragweed ([5]; 125 g ai/ha): 0
- Plant response rating, Barnyardgrass [6, 19]: 20
- Plant response rating, Barnyardgrass [6, 21]: 0
- Plant response rating, Pigweed [7, 19]: 70
- Plant response rating, Pigweed [7, 21]: 20
- Plant response rating, Rice (rice (Oryza sativa)): 0
- Plant response rating, Wheat [8, 19]: 0
- Plant response rating, Wheat [8, 21]: 0
- Plant response rating, Corn (corn (Zea mays); [19]): 20
- Plant response rating, Corn (corn (Zea mays); [21]): 0
- Plant response rating, Blackgrass [9, 19]: 0
- Plant response rating, Blackgrass [9, 21]: 0
- Plant response rating, Ragweed [10, 19]: 20
- Plant response rating, Ragweed [10, 21]: 20
- Plant response rating, Pigweed ([11]; 31 g ai/ha): 60
- Plant response rating, Pigweed ([11]; 125 g ai/ha): 80
- Plant response rating, Ducksalad [12]: 0
- Plant response rating, Barnyardgrass ([13]; 31 g ai/ha): 0
- Plant response rating, Barnyardgrass ([13]; 125 g ai/ha): 30
- Plant response rating, Ryegrass, Italian [14, 19]: 0
- Plant response rating, Ryegrass, Italian [14, 21]: 0
- Plant response rating, Barnyardgrass [15]: 0
- Plant response rating, Ryegrass, Italian ([16]; 31 g ai/ha): 0
- Plant response rating, Ryegrass, Italian ([16]; 125 g ai/ha): 0
- Plant response rating, Galium [17, 19]: 30
- Plant response rating, Galium [17, 21]: 0
- Plant response rating, Kochia (kochia (Kochia scoparia) [18]; 31 g ai/ha): 0
- Plant response rating, Kochia (kochia (Kochia scoparia) [18]; 125 g ai/ha): 0

SMILES: Cc1cccc(Oc2ncc(Cl)cn2)c1OC/C=C/C(F)(F)F [Compound 58]
- Plant response rating, Sedge, Umbrella [2]: 100
- Plant response rating, Foxtail, Giant ([3]; 31 g ai/ha): 40
- Plant response rating, Foxtail, Giant ([3]; 125 g ai/ha): 90
- Plant response rating, Foxtail, Giant [4, 22]: 20
- Plant response rating, Foxtail, Giant [4, 19]: 70
- Plant response rating, Ragweed ([5]; 31 g ai/ha): 0
- Plant response rating, Ragweed ([5]; 125 g ai/ha): 0
- Plant response rating, Barnyardgrass [6, 22]: 50
- Plant response rating, Barnyardgrass [6, 19]: 70
- Plant response rating, Pigweed [7, 22]: 10
- Plant response rating, Pigweed [7, 19]: 30
- Plant response rating, Rice (rice (Oryza sativa)): 15
- Plant response rating, Wheat [8, 22]: 0
- Plant response rating, Wheat [8, 19]: 0
- Plant response rating, Corn (corn (Zea mays); [22]): 0
- Plant response rating, Corn (corn (Zea mays); [19]): 10
- Plant response rating, Blackgrass [9, 22]: 0
- Plant response rating, Blackgrass [9, 19]: 30
- Plant response rating, Ragweed [10, 22]: 0
- Plant response rating, Ragweed [10, 19]: 0
- Plant response rating, Pigweed ([11]; 31 g ai/ha): 0
- Plant response rating, Pigweed ([11]; 125 g ai/ha): 100
- Plant response rating, Ducksalad [12]: 100
- Plant response rating, Barnyardgrass ([13]; 31 g ai/ha): 40
- Plant response rating, Barnyardgrass ([13]; 125 g ai/ha): 90
- Plant response rating, Ryegrass, Italian [14, 22]: 0
- Plant response rating, Ryegrass, Italian [14, 19]: 0
- Plant response rating, Barnyardgrass [15]: 0
- Plant response rating, Ryegrass, Italian ([16]; 31 g ai/ha): 0
- Plant response rating, Ryegrass, Italian ([16]; 125 g ai/ha): 0
- Plant response rating, Galium [17, 22]: 0
- Plant response rating, Galium [17, 19]: 30
- Plant response rating, Kochia (kochia (Kochia scoparia) [18]; 31 g ai/ha): 0
- Plant response rating, Kochia (kochia (Kochia scoparia) [18]; 125 g ai/ha): 0
